{"source": "paper PMC3851587", "about": "(Molecular and biochemical parasitology, 2013)", "key": {"[1]": {"tested_on": "Chimera N3A", "assay": "[3H]-adenosine uptake in transfected L. donovani cells", "type": "cell-based, Crithidia fasciculata", "settings": "labelled compound"}, "[2]": {"tested_on": "Chimera N1A", "assay": "[3H]-adenosine uptake in transfected L. donovani cells", "type": "cell-based, Crithidia fasciculata", "settings": "labelled compound"}}, "data": [{"compound": "Nc1ncnc2c1ncn2[C@@H]1O[C@H](CO)[C@@H](O)[C@H]1O", "note": "[adenosine]", "values": [{"measurement": "Km", "setting": "[1]", "result": "1200 ± 160", "unit": "nM"}, {"measurement": "Km", "setting": "[2]", "result": "500 ± 140", "unit": "nM"}]}]}
